pIC50: −log10 of the molar value. Calls of active or inactive are those of the source. The rule behind the calls is not given here.
What was measured:
[1] = test system: BaF3; assay: cells; settings: Mus musculus, BaF3, 72 h
Description: Cytotoxicity against mouse BaF3 cells expressing LMNA fused TrkA G667S mutant assessed as inhibition of cell growth incubated for 3 days by CCK-8 assay

[2] = Toxicity in NOD-SCID mouse assessed as histological changes in heart at 5 to 20 mg/kg, iv measured after 10 days by H and E staining based microscopic analysis; format: organism-based; settings: in vivo, 240 h, dose 5-20 mg/kg, time 10 day
[3] = test system: BaF3; assay: cells; settings: Mus musculus, BaF3, 72 h; remark: listed apart in the source
[4] = test system: BaF3; assay: In vivo inhibition of Trk signalling in NOD-SCID mouse allografted with mouse BaF3 cells expressing TEL fused TrkC G623R mutant assessed as reduction in p-Erk level at 5 to 20 mg/kg, iv qd measured after 10 days by IHC staining based analysis; format: functional, organism-based; settings: dose 5-20 mg/kg, time 10.0 day
[5] = Toxicity in NOD-SCID mouse assessed as histological changes in spleen at 5 to 20 mg/kg, iv measured after 10 days by H and E staining based microscopic analysis; format: organism-based; settings: in vivo, 240 h, dose 5-20 mg/kg, time 10 day
[6] = test system: BaF3; assay: Cytotoxicity against mouse BaF3 cells expressing LMNA fused TrkA F589L mutant assessed as inhibition of cell growth incubated for 3 days by CCK-8 assay; format: functional, cell-based; settings: BaF3, 72 h
[7] = test system: BaF3; assay: Antitumour activity against larotrectinib-resistant mouse BaF3 cells expressing TEL fused TrkC G623R mutant allografted in NOD-SCID mouse assessed as reduction in tumor growth at 40 mg/kg/day, po qd measured every 2 or 3 days for 10 days; format: functional, organism-based; settings: time 10.0 day
[8] = Toxicity in NOD-SCID mouse allografted with mouse BaF3 cells expressing TEL fused TrkA assessed as body weight loss at 40 mg/kg, po qd measured every 2 or 3 days for 10 days; format: organism-based; settings: in vivo, 240 h, time 10 day
[9] = cells; settings: Homo sapiens, KM12-Luc, 72 h
Description: Cytotoxicity against human KM12-Luc cells expressing TPM3 fused TrkA assessed as inhibition of cell growth incubated for 3 days by CCK-8 assay

[10] = test system: BaF3; assay: cells; settings: Mus musculus, BaF3, 72 h; remark: listed apart in the source
[11] = in vitro; settings: mouse, BaF3 cells
Description: Cytotoxicity against mouse BaF3 assessed as inhibition of cell growth incubated for 3 days by CCK-8 assay

[12] = Toxicity in NOD-SCID mouse assessed as histological changes in lung at 5 to 20 mg/kg, iv measured after 10 days by H and E staining based microscopic analysis; format: organism-based; settings: in vivo, 240 h, dose 5-20 mg/kg, time 10 day
[13] = Toxicity in NOD-SCID mouse allografted with larotrectinib-resistant mouse BaF3 cells expressing TEL fused TrkC G623R mutant assessed as body weight loss at 40 mg/kg, po qd measured every 2 or 3 days for 10 days; format: organism-based; settings: in vivo, 240 h, time 10 day
[14] = test system: BaF3; assay: cells; settings: Mus musculus, BaF3, 72 h; remark: listed apart in the source
Description: Cytotoxicity against mouse BaF3 cells expressing TEL fused TrkA assessed as inhibition of cell growth incubated for 3 days by CCK-8 assay

[15] = Toxicity in NOD-SCID mouse assessed as histological changes in kidney at 5 to 20 mg/kg, iv measured after 10 days by H and E staining based microscopic analysis; format: organism-based; settings: in vivo, 240 h, dose 5-20 mg/kg, time 10 day
[16] = test system: BaF3; assay: cells; settings: Mus musculus, BaF3, 72 h; remark: listed apart in the source
Description: Cytotoxicity against mouse BaF3 cells expressing TEL fused TrkC G623R assessed as inhibition of cell growth incubated for 3 days by CCK-8 assay

[17] = test system: BaF3; assay: In vivo inhibition of Trk signalling in NOD-SCID mouse allografted with mouse BaF3 cells expressing TEL fused TrkC G623R mutant assessed as reduction in p-Trk level at 5 to 20 mg/kg, iv qd measured after 10 days by IHC staining based analysis; format: functional, organism-based; settings: dose 5-20 mg/kg, time 10.0 day
[18] = test system: BaF3; assay: cells; settings: Mus musculus
Description: Cytotoxicity against mouse BaF3 cells harboring TEL fused TrkC G613R mutant assessed as inhibition of cell growth by MTT assay

[19] = test system: BaF3; assay: cells; settings: Mus musculus, BaF3, 72 h; remark: listed apart in the source
Description: Cytotoxicity against mouse BaF3 cells expressing TEL fused TrkC assessed as inhibition of cell growth incubated for 3 days by CCK-8 assay

[20] = Toxicity in NOD-SCID mouse assessed as histological changes in liver at 5 to 20 mg/kg, iv measured after 10 days by H and E staining based microscopic analysis; format: organism-based; settings: in vivo, 240 h, dose 5-20 mg/kg, time 10 day
[21] = test system: BaF3; assay: Antitumour activity against mouse BaF3 cells expressing TEL fused TrkA allografted in NOD-SCID mouse assessed as reduction in tumor progression at 40 mg/kg/day, po qd measured every 2 or 3 days for 10 days; format: functional, organism-based; settings: time 10.0 day
[22] = test system: BaF3; assay: cells; settings: Mus musculus, BaF3, 72 h; remark: listed apart in the source
Description: Cytotoxicity against mouse BaF3 cells expressing TEL fused TrkC G696C assessed as inhibition of cell growth incubated for 3 days by CCK-8 assay

[23] = test system: BaF3; assay: In vivo inhibition of Trk signalling in NOD-SCID mouse allografted with mouse BaF3 cells expressing TEL fused TrkC G623R mutant assessed as reduction in p-Akt level at 5 to 20 mg/kg, iv qd measured after 10 days by IHC staining based analysis; format: functional, organism-based; settings: dose 5-20 mg/kg, time 10.0 day
[24] = test system: BaF3; assay: cells; settings: Mus musculus, BaF3, 72 h; remark: listed apart in the source
Description: Cytotoxicity against mouse BaF3 cells expressing CD74 fused TrkA assessed as inhibition of cell growth incubated for 3 days by CCK-8 assay

pIC50 [1]: 7.52
pIC50 [3]: 6.96
pIC50 [9]: 8.30
pIC50 [10]: 7.82
IC50 at 3 days [11]: > 10000 nM
pIC50 [14]: 8.05
pIC50 [16]: 7.74
pIC50 [18]: 7.74
pIC50 [19]: 8.40
pIC50 [22]: 7.30
pIC50 [24]: 9.00
SMILES: C[C@@H]1CCc2ncc(F)cc2[C@H]2CCCN2c2ccn3ncc(c3n2)C(=O)N1 [SELITRECTINIB]
Activity [2]: Non-Toxic
inhibition [4]: Active
Activity [5]: Non-Toxic
pIC50 [6]: 7.77
Activity [7]: Active
Activity [8]: Non-Toxic
Activity [12]: Non-Toxic
Activity [13]: Non-Toxic
Activity [15]: Non-Toxic
inhibition [17]: Active
Activity [20]: Non-Toxic
Activity [21]: Active
inhibition [23]: Active
